Assay results published in patent US8318731B2, “Pyrrolopyrimidines” (Janssen Pharmaceutica NV, priority 2007, dated 2012).

Legend:
PC3 = experiment: Cellular proliferation assay (Alamar blue), PC3; type: cell-based; conditions: Homo sapiens, PC-3, PC-3 cells; 10% FCS; 72 h with compound; Alamar blue 24 h; read-out: pIC50 PC-3 (converted)
Summary of the method: (§1)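 Cells seeded 24 h, then exposed to compounds for 72 h in 10% FCS at 37° C, 5% CO2. Viability by Alamar blue (resazurin 9 μg/ml) fluorescence at 544/590 nm after 4 h (HCT-116), 6 h (U87-MG) or 24 h (A2780, PC3) dye incubation; effect expressed relative to control cells.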

A2780 = experiment: Cellular proliferation assay (Alamar blue), A2780; type: cell-based; conditions: Homo sapiens, A2780, A2780 cells; 10% FCS; 72 h with compound; Alamar blue 24 h; read-out: pIC50 A2780 (converted)
Summary of the method: as §1

PLK4 (h) = target: T1, PLK4 (h) (Homo sapiens, UniProt O00444); experiment: PLK-4 human kinase scintillation proximity assay (SPA); type: biochemical; conditions: 1 μM ATP, 60 minutes at r.t., read-out: PLK4 pIC50 (converted)
T1 sequence (O00444 1-970): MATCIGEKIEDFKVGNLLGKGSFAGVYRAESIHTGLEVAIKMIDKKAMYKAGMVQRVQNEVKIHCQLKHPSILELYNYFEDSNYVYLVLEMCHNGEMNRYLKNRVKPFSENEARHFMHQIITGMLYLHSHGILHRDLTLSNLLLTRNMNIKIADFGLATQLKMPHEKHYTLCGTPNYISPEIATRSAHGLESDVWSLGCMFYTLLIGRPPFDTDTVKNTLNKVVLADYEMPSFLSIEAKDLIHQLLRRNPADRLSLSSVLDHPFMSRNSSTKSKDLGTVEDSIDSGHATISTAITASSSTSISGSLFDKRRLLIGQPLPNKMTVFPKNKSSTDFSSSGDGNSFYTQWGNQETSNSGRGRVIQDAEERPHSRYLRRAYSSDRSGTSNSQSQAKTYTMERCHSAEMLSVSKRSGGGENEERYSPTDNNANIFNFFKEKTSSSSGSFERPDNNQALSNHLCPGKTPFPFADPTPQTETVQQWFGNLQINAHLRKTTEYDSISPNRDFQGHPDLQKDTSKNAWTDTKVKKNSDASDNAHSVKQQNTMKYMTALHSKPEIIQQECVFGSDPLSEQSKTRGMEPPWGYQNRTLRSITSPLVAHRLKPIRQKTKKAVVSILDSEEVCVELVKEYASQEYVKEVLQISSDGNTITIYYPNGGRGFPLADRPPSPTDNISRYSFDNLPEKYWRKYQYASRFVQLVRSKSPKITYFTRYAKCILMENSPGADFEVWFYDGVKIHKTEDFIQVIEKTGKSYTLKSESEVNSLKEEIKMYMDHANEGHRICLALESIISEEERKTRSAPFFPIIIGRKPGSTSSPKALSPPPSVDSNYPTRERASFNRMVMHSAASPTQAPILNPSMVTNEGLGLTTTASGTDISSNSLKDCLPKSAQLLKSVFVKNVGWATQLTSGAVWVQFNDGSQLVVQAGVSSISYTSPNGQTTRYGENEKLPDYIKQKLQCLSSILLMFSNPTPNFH
Summary of the method: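 Human PLK4 (19 μg/ml) reacted with 10 μM biotinylated peptide, 1 μM ATP plus 2 nM [γ-33P]ATP in HEPES pH 8.0 with MgCl2, NaCl, NaF and DTT for 60 min at r.t. After an EDTA stop, phosphorylated substrate was captured on streptavidin PVT SPA beads and scintillation imaged.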

HCT-116 = experiment: Cellular proliferation assay (Alamar blue), HCT-116; type: cell-based; conditions: Homo sapiens; HCT-116 cells; 10% FCS; 72 h with compound; Alamar blue 4 h; read-out: pIC50 HCT-116 (converted)
Summary of the method: as §1

MDA-MB-231 = experiment: Cellular proliferation assay (Alamar blue), MDA-MB-231; type: cell-based; conditions: Homo sapiens, MDA-MB-231, MDA-MB-231 cells; 10% FCS; 72 h with compound; Alamar blue 24 h; read-out: pIC50 MDA/MB231 (converted)
Summary of the method: (§2)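 Viable cell number is determined by Alamar blue conversion after cells are treated with compound for 72 hours, following 24 hours of growth without compound in 10% FCS. The effect is calculated against control cells.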

U87-MG = experiment: Cellular proliferation assay (Alamar blue), U87-MG; type: cell-based; conditions: Homo sapiens, U-87 MG; U87-MG cells; 10% FCS; 72 h with compound; Alamar blue 6 h; read-out: pIC50 U87MG (converted)
Summary of the method: as §1

H1299 = experiment: Cellular proliferation assay (Alamar blue), H1299; type: cell-based; conditions: Homo sapiens, NCI-H1299, H1299 cells; 10% FCS; 72 h with compound; Alamar blue 4 h; read-out: pIC50 H1299 (converted)
Summary of the method: as §2

IC50 (PC3) [µM]	IC50 (A2780) [µM]	IC50 (PLK4 (h)) [µM]	IC50 (HCT-116) [µM]	IC50 (MDA-MB-231) [µM]	IC50 (U87-MG) [µM]	IC50 (H1299) [µM]	Compound
> 10	> 10	> 10	> 10	> 10	> 10	> 10	COCCN1CC(=O)N(C)CCCc2c[nH]c3ncnc(c23)Nc2ccc(OC)c(c2)C1 [Compound 36]
2.51	0.501	0.2	1	3.98	1.26	3.16	CN1CCN(c2ccc3cc2OCC(=O)N(C)CCCN(C)Cc2c[nH]c4ncnc(c24)N3)CC1 [Compound 84]
> 10	> 10	2	> 10	> 10	> 10	> 10	O=C1CCCCOc2cc(ccc2Cl)Nc2ncnc3[nH]cc(c23)CN2CCN1CC2 [Compound 104]
5.01	0.501	0.0398	0.631	3.16	2	1.58	CCOCCCOc1ccc2cc1OCC(=O)N(C)CCCN(C)Cc1c[nH]c3ncnc(c13)N2 [Compound 130]
> 10	> 10	6.31	> 10	> 10	> 10	> 10	O=C1CCCOc2cc(ccc2Cl)Nc2ncnc3[nH]cc(c23)CN2CCN1CC2 [Compound 106]
> 10	2.51	0.0631	0.794	> 10	> 10	2.51	CN1CCCN(C)C(=O)COc2cc(ccc2NC(=O)Nc2cccc(Cl)c2)Nc2ncnc3[nH]cc(c23)C1 [Compound 67]
> 10	> 10	0.1	> 10	> 10	> 10	> 10	COc1ccc2cc1OCC(=O)N(C)CCCN(Cc1ccccc1)Cc1c[nH]c3ncnc(c13)N2 [Compound 61]
> 10	> 10	> 10	> 10	> 10	> 10	> 10	COc1cc2cc(c1OC)CN(C(C)C)CC(=O)N(C)CCCc1c[nH]c3ncnc(c13)N2 [Compound 123]
> 10	> 10	1	> 10	> 10	> 10	> 10	COc1ccc2cc1CCC(=O)N(C)CCN(C)Cc1c[nH]c3ncnc(c13)N2 [Compound 46]
3.16	2.51	0.0631	3.16	5.01	3.16	7.94	CCN(CCOC)CCOc1ccc2cc1OCC(=O)N(C)CCCN(C)Cc1c[nH]c3ncnc(c13)N2 [Compound 77]
> 10	3.98	0.0501	0.631	> 10	0.794	> 10	CN1CCCN(C)C(=O)COc2cc(ccc2Cl)Nc2ncnc3[nH]cc(c23)C1 [Compound 14]
> 10	1.26	0.0251	5.01	> 10	> 10	6.31	CN1CCCN(C)C(=O)COc2cc(ccc2OCC(=O)NC2CC2)Nc2ncnc3[nH]cc(c23)C1 [Compound 125]
> 10	> 10	6.31	> 10	> 10	> 10	> 10	O=C1CCCCOc2cc(ccc2N2CCOCC2)Nc2ncnc3[nH]cc(c23)CN2CCN1CC2 [Compound 121]
> 10	> 10	0.126	> 10	> 10	> 10	> 10	COc1ccc2cc1OCCCCC(=O)N(C)CCCN(C)Cc1c[nH]c3ncnc(c13)N2 [Compound 16]
> 10	6.31	0.0631	> 10	> 10	> 10	> 10	CN1CCCN(C)C(=O)COc2cc(ccc2OCCO)Nc2ncnc3[nH]cc(c23)C1 [Compound 80]
> 10	3.98	0.794	6.31	> 10	> 10	> 10	CN1CCN(C)C(=O)CCCOc2cccc(c2)Nc2ncnc3[nH]cc(c23)C1 [Compound 31]
> 10	> 10	1.26	> 10	> 10	> 10	> 10	CN1CCN(C)C(=O)CCCOc2cc(ccc2N2CCOCC2)Nc2ncnc3[nH]cc(c23)C1 [Compound 40]
> 10	> 10	> 10	> 10	> 10	> 10	> 10	CN1CCN(C)C(=O)CN(C)C(=O)CCc2cccc(c2)Nc2ncnc3[nH]cc(c23)C1 [Compound 8]
7.94	0.0501	0.0501	0.0631	3.16	2	0.1	CC(C)OCCOc1ccc2cc1OCC(=O)N(C)CCCN(C)Cc1c[nH]c3ncnc(c13)N2 [Compound 131]
3.98	2	0.501	1.58	5.01	2	2	CN1CCCN(C)C(=O)CCc2cccc(c2)Nc2ncnc3[nH]cc(c23)C1 [Compound 21]
2.51	0.316	0.0251	0.316	2	1.58	1	COCCOc1ccc2cc1OCC(=O)N(C)CCCN(C)Cc1c[nH]c3ncnc(c13)N2 [Compound 119]
10	5.01	0.398	3.98	> 10	10	> 10	CN1CCCN(C)C(=O)Cc2cccc(c2)Nc2ncnc3[nH]cc(c23)C1 [Compound 24]
> 10	0.794	0.0251	0.794	> 10	2	> 10	COc1ccc(NC(=O)Nc2ccc3cc2OCC(=O)N(C)CCCN(C)Cc2c[nH]c4ncnc(c24)N3)cc1 [Compound 15]
5.01	1.26	0.0631	1.58	5.01	3.16	6.31	CN1CCCN(C)C(=O)COc2cc(ccc2OCCSc2nccn2C)Nc2ncnc3[nH]cc(c23)C1 [Compound 143]
5.01	1.58	0.158	2	7.94	2	2	CN1CCCN(C)C(=O)COc2cc(ccc2N2CCOCC2)Nc2ncnc3[nH]cc(c23)C1 [Compound 85]
